pEC50, pIC50: −log10 of the molar value.
Columns and labels:
NS3 (HCV) = NS3 (HCV) (Hepacivirus hominis (Hepatitis C virus), UniProt P26663); experiment: Selectivity of 20a: NS3 (HCV); assay type: biochemical
DDX1 = target: T1, DDX1 (Homo sapiens, UniProt Q92499); experiment: Selectivity of 20a: DDX1; assay type: biochemical; conditions: >200 = less than 20% of inhibition at 200 μM, the highest concentration tested
T1 sequence (Q92499 1-740): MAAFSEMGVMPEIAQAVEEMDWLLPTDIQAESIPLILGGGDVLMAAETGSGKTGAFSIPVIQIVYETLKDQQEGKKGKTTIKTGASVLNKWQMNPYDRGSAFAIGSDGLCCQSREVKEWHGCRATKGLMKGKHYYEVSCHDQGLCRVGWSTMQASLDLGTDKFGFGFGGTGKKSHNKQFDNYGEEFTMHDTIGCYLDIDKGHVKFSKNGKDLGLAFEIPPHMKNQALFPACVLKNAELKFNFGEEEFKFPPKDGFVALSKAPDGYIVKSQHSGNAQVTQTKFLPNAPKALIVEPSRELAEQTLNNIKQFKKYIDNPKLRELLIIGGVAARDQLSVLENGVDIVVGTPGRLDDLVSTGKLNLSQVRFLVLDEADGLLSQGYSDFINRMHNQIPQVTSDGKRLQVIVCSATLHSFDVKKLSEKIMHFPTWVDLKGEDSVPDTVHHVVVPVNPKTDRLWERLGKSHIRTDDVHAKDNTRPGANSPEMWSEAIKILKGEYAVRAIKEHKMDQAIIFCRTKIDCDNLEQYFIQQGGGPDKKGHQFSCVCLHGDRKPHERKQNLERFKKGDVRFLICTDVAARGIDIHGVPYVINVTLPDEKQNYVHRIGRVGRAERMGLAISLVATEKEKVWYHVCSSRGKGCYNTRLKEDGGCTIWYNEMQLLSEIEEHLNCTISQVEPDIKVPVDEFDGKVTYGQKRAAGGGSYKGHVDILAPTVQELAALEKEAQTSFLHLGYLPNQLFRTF

[1] = Cytotoxicity, MTT method in HuH7.5 cells; assay type: cell-based; conditions: human, non-infected, read-out: HCV CC50
Method: After 4 h of incubation at 37° C. in a humidified atmosphere with 5% CO2, the amount of formazan produced was quantified spectrophotometrically at 550/620 nm (C. Pannecouque et al, Nature protocol 2008; 3 (3): 427-434). […] These assays were done in duplicate.

[2] = system: HCV Jc1 (genotype 2a virus); experiment: HCV infectious cell culture system, NS5A immunostaining; conditions: Hepatitis C virus, Huh7.5, read-out: HCV EC50
[3] = system: human liver microsome (HLM); experiment: Microsomal Stability Assay; conditions: human liver microsomes, 37 °C, 60 min, compound 50 μM; percentage of not metabolized compound

Sequence of NS3 (HCV) (P26663 1027-1657): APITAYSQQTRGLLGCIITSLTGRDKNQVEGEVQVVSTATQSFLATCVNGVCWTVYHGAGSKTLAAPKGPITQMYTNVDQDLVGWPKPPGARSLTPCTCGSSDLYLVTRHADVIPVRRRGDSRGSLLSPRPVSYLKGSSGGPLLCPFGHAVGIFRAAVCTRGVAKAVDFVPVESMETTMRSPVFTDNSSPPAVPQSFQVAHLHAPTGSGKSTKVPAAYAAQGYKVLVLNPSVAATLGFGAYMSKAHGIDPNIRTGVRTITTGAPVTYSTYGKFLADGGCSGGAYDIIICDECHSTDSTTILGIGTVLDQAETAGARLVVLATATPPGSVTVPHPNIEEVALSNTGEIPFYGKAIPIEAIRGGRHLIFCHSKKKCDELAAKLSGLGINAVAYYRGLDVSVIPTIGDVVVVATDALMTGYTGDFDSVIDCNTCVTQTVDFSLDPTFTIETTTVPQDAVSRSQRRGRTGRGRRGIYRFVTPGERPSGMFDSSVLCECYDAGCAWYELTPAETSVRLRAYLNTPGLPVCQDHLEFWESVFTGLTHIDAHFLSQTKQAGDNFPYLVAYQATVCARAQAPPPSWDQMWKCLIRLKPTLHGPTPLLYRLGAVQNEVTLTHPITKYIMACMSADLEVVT

For `CCCCc1cn(-c2ccc(NC(=O)Nc3ccccc3C)cc2)nn1` [Compound 20a, 1-(4-(4-butyl-1H-1,2,3-triazol-1-yl)phenyl)-3-o-tolylurea], the pIC50 (NS3 (HCV)) was 4.77, the pIC50 (DDX1) was < 3.70 and the CC50 [1] was 10.1 µM. The pEC50 [2] was 5.42 and the “Metabolic stability (Sability %)” value [3] was 99%.

Source: US10941121B2 (AZIENDA OSPEDALIERA UNIVERSITARIA SENESE, priority 2015, dated 2021)
